This is an account of results in ChEMBL document CHEMBL3774347, “Docking and Linking of Fragments To Discover Jumonji Histone Demethylase Inhibitors” (J Med Chem, 2016).

The target in experiment [1] is Lysine-specific demethylase 5B (Homo sapiens, UniProt Q9UGL1). The experiment is described as follows: Inhibition of KDM5B (unknown origin) expressed in Escherichia coli using H3 (1 to 21 residues) K4Me3-GGK-Biotin KDM5B Cognate Ligand/10 uM alpha-ketoglutarate as substrate/cofactor preincubated for 5 mins followed by substrate addition measured after 20 mins by alphascreen assay. On the technique in general: Bead proximity is the source of the signal in Alpha formats.
Lysine-specific demethylase 5B, sequence (Q9UGL1 whole entry, the tested form may be a part): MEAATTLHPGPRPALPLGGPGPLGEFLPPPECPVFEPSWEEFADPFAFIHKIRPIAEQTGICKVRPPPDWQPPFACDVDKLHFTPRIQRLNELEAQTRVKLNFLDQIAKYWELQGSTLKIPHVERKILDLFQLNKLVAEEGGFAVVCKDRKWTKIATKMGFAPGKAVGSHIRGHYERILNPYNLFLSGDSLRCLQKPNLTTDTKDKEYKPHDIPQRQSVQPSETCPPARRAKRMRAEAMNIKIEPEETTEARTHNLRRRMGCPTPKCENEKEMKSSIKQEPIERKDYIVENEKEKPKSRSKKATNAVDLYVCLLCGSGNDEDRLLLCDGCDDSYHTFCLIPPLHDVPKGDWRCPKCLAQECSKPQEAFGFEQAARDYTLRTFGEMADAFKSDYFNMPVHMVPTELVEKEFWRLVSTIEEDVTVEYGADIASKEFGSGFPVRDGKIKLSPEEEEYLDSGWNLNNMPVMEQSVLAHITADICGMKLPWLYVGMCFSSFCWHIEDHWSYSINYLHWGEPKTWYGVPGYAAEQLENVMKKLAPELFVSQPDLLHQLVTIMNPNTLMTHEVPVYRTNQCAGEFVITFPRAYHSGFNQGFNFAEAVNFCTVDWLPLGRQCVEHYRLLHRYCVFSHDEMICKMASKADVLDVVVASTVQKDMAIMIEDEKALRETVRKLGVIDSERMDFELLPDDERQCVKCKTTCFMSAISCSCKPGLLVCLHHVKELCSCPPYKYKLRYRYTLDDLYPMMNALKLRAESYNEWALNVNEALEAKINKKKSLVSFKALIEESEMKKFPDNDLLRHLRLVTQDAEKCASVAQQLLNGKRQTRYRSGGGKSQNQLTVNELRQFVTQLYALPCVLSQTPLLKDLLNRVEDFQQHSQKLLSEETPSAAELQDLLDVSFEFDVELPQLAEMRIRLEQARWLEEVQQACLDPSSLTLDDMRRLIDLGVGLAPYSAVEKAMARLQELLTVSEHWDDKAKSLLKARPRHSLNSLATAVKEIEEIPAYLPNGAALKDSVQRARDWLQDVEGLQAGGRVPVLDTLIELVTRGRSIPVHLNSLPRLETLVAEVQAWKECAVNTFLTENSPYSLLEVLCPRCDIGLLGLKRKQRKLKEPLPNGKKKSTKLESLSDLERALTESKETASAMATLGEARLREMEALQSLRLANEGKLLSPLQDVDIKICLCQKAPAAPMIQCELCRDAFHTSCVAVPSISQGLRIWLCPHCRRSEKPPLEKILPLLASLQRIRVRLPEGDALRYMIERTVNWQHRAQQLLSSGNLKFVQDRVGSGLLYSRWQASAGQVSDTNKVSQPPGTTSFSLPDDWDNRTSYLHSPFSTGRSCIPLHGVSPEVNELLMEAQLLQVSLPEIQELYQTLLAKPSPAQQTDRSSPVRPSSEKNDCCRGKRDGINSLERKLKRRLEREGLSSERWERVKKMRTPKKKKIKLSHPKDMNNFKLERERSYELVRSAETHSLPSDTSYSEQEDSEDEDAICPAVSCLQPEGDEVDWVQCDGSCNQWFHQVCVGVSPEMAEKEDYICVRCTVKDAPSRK

In experiment [2] the target is T1, Lysine-specific demethylase 4C (Homo sapiens, UniProt Q9H3R0).
T1 sequence (Q9H3R0 whole entry): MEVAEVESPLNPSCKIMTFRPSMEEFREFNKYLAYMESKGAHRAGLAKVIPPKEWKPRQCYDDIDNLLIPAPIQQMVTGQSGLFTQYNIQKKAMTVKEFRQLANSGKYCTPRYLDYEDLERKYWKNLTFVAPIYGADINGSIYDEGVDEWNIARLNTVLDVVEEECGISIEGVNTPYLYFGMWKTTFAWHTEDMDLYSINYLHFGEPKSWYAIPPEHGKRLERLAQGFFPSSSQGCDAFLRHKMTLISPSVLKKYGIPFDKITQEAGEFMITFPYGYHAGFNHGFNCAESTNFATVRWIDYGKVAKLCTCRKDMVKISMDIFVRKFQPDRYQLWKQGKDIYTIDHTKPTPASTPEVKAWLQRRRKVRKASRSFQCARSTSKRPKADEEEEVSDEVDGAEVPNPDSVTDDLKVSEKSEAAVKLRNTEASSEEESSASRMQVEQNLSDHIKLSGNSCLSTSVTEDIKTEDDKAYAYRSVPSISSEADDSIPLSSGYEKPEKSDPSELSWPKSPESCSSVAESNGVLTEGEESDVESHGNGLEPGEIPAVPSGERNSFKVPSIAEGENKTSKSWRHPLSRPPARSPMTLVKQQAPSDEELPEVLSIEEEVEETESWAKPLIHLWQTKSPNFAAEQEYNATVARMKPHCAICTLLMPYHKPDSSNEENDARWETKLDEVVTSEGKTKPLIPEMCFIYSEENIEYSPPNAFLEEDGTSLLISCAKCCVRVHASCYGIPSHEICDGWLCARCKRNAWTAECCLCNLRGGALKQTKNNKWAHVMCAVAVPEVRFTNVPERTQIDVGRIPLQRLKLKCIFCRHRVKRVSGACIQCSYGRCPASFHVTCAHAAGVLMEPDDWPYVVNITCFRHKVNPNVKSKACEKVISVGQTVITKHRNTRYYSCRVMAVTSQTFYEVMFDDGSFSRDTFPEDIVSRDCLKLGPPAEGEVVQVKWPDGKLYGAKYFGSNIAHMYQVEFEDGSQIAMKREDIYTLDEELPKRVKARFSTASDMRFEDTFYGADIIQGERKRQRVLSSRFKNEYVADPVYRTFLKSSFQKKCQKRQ
The experiment is described as follows: Inhibition of N-terminal His6-tagged KDM4C (1 to 352 residues) (unknown origin) expressed in Escherichia coli Rosetta 2(DE3)pLysS using ARTKQTARK(Me3)STGGKA peptide/100 uM alpha-ketoglutarate as substrate/cofactor incubated for 45 mins by MALDI assay.

Experiment [3] addresses Lysine-specific demethylase 5A (Homo sapiens, UniProt P29375). Put plainly: Inhibition of KDM5A (1 to 797 residues) (unknown origin) expressed in insect sf21 cells using ARTK(Me3)QTARKSTGGKAPRK peptide/ 100 uM alpha-ketoglutarate as substrate/cofactor incubated for 45 mins by MALDI assay.
Experiment [4] has as its target T1, Lysine-specific demethylase 4C. The experiment is described as follows: Inhibition of N-terminal His6-tagged KDM4C (1 to 352 residues) (unknown origin) expressed in Escherichia coli Rosetta 2(DE3)pLysS using biotinylated histone H3 (1 to 21 residues) lysine 9 trimethylated peptide/50 uM alpha-ketoglutarate as substrate/cofactor measured after 45 mins by TR-FRET assay. The settings on record: read-out: IC50. (In general: TR-FRET usually uses a lanthanide donor and a delayed reading to cut background.)

The target is the same in experiment [5]. The experiment is described as follows: Inhibition of N-terminal His6-tagged KDM4C (1 to 352 residues) (unknown origin) expressed in Escherichia coli Rosetta 2(DE3)pLysS using biotinylated histone H3 (1 to 21 residues) lysine 9 trimethylated peptide/2 uM alpha-ketoglutarate as substrate/cofactor measured after 45 mins by TR-FRET assay. The following applies: read-out: IC50.

For experiment [6], the target named is T2, Lysine-specific demethylase 3A (Homo sapiens, UniProt Q9Y4C1).
T2 sequence (Q9Y4C1 whole entry): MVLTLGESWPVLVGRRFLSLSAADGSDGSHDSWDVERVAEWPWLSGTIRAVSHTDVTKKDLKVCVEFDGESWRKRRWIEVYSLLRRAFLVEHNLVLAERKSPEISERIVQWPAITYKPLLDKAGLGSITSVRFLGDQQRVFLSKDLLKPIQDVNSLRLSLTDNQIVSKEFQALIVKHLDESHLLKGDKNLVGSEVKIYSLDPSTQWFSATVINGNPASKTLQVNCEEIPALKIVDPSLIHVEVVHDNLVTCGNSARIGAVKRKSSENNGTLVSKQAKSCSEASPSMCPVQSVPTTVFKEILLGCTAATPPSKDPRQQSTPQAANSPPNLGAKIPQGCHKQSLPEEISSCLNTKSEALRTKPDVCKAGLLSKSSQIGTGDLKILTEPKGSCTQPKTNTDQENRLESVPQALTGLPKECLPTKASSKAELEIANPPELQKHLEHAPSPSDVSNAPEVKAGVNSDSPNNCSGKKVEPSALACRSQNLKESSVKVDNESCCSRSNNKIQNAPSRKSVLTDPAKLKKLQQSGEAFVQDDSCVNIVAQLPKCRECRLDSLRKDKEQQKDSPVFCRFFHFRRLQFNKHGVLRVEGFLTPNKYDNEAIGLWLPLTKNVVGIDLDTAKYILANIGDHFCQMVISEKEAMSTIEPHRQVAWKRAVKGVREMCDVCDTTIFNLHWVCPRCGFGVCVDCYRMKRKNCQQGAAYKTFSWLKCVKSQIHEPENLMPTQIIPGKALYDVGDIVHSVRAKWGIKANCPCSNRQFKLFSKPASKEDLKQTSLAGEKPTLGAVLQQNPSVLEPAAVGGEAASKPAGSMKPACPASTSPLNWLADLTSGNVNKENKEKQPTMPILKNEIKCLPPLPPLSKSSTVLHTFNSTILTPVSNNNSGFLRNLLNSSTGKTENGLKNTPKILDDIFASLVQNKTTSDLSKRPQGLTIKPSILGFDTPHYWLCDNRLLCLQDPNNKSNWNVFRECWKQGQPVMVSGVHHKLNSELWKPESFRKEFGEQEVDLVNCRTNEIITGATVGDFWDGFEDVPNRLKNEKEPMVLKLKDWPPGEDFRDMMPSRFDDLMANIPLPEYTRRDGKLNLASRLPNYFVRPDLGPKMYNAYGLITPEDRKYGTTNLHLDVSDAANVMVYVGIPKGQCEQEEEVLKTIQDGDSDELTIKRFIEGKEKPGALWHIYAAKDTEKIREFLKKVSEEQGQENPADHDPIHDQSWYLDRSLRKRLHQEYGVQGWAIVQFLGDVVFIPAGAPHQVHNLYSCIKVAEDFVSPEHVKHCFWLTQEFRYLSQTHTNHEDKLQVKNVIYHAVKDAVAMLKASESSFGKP
The experiment is described as follows: Inhibition of KDM3A (unknown origin) expressed in Escherichia coli using H3 (1 to 21 residues) K9Me2-GGK-Biotin KDM3A Cognate Ligand/10 uM alpha-ketoglutarate as substrate/cofactor preincubated for 5 mins followed by substrate addition measured after 20 mins by alphascreen assay.

Molecules are shown by their SMILES.

Lysine-specific demethylase 5A, sequence (P29375 whole entry, the tested form may be a part): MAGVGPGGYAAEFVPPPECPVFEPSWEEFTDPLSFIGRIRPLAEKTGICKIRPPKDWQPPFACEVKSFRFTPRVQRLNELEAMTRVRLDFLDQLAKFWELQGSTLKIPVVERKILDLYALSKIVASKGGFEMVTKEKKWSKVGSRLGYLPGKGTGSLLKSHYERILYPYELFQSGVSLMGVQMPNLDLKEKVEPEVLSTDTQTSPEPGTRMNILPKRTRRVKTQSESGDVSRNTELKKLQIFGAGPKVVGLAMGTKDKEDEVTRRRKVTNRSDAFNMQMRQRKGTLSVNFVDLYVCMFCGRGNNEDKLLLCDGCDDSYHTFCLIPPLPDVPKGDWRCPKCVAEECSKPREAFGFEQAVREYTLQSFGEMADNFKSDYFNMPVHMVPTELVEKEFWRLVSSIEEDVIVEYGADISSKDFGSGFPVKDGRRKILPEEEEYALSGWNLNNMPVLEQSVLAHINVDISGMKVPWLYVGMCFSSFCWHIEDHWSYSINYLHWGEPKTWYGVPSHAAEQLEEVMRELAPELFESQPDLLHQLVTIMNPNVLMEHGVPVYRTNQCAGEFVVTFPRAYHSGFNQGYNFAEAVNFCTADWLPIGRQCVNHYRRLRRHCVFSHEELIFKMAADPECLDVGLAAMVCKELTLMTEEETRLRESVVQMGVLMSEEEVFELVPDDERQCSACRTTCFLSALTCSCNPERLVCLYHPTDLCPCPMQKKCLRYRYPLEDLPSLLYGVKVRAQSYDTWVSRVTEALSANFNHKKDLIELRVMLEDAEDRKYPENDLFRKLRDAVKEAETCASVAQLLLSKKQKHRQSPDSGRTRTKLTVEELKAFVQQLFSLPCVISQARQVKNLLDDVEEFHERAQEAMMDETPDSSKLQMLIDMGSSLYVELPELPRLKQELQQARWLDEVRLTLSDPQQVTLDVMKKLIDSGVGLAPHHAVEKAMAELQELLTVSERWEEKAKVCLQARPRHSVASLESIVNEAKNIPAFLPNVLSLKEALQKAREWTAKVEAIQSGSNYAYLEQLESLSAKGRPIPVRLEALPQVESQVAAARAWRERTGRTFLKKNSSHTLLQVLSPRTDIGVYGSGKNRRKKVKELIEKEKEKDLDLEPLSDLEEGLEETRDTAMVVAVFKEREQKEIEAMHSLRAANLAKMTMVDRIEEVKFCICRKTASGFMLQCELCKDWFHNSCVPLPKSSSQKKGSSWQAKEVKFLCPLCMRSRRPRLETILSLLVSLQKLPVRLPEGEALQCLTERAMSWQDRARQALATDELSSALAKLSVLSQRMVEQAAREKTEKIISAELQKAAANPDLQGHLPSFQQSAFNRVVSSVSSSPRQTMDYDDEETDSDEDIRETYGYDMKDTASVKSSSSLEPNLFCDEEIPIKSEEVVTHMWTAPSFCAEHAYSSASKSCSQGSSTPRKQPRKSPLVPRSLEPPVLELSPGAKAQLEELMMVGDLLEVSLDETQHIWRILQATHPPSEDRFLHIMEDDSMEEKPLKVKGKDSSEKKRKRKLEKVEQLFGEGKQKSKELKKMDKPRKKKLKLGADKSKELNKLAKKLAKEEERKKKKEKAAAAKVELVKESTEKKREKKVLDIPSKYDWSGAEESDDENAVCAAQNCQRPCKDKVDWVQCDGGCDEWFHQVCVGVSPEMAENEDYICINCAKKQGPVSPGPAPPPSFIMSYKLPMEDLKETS

What is called IC50 is the concentration that gives 50% inhibition. `O=C(O)c1ccnc(-c2cc(NC(=O)c3ccc(O)cc3)ccc2O)c1`: the half-inhibitory concentration (IC50) in experiment [1] was determined as 19 µM; in experiment [2] it was 5.9 µM; in experiment [3] it was 45 µM; in experiment [4], 2.6 µM; in experiment [5], 0.064 µM; in experiment [6], 2.3 µM.

For `COCC(=O)Nc1ccc(O)c(-c2cc(C(=O)O)ccn2)c1`, the IC50 in experiment [1] amounted to 12 µM; in experiment [2], 47 µM; in experiment [3], 180 µM; in experiment [4], 7.4 µM; in experiment [5], 0.14 µM; in experiment [6] it was 11 µM.

Consider `CC(=O)Nc1ccc(O)c(-c2cc(C(=O)O)ccn2)c1`, for which the IC50 in experiment [1] turned out to be 72 µM; in experiment [2] it was 63 µM; in experiment [3] it was 240 µM; in experiment [4], 40 µM; in experiment [5] it was 1.2 µM; in experiment [6], 33 µM.

Consider `COc1cccc(CC(=O)Nc2ccc(O)c(-c3cc(C(=O)O)ccn3)c2)c1`, for which the IC50 turned out to be 22 µM in experiment [1]; 7.3 µM in experiment [2]; 52 µM in experiment [3]; 1.5 µM in experiment [4]; 0.14 µM in experiment [5]; 9 µM in experiment [6].

Regarding `Cc1cc(C(=O)Nc2ccc(O)c(-c3cc(C(=O)O)ccn3)c2)no1`, the IC50 was 2.7 µM in experiment [1]; 16 µM in experiment [2]; 23 µM in experiment [3]; 5 µM in experiment [4]; 0.065 µM in experiment [5]; 5.7 µM in experiment [6].
